Earlier results on 2 compounds are cited in US12274695B2, “Pharmaceutical drug therapy for autism” (priority 2020, dated 2025).

Each structure is given as a SMILES string. Where two headings read alike, the source gives them in different places.

The conditions of data set [1]: in vivo.
Data set [2] deals with humans. The conditions noted are these: in humans.
The subject of data set [3] is fear conditioning. The conditions noted are these: preclinical, after fear conditioning.
The test system of data set [4] is mouse model of Alzheimer's disease (AD).
The subject of data set [5] is monkey model of schizophrenia.
The test system of data set [6] is adults with ASD. The conditions noted are these: 7 mg transdermal nicotine, 1 week.
The test system of data set [7] is BTBR T+Itpr3 tf/J (BTBR) mice.

Regarding `CN1C(=O)CC[C@H]1c1cccnc1` [Cotinine], in data set [1], the blood-brain barrier crossing result is reported as “crosses the blood-brain barrier” and the “plasma half-life compared with nicotine” value was “longer”. Also, the “addictive or cardiovascular effects” value in data set [2] is “no addictive or cardiovascular effects”. Besides, in data set [3], the “extinction of fear memory and anxiety” value is recorded as “facilitated”. The working memory result in data set [4] is given as “improved”. Also, the working memory result in data set [5] was “improved”.
Take `CN1CCCC1c1cccnc1` (stereo not drawn) [nicotine, Nicotine]: the Sleep ratings entry in data set [6] is “improved”. Also, the “Aberrant Behavior Checklist-Irritability (ABC-I) subscale change from baseline” value in data set [6] (compared to placebo, five subjects) is reported as “improved”. For the same compound, the tolerability entry in data set [6] (eight subjects) was “tolerated nicotine treatment well”. In addition, the repetitive behaviors entry in data set [7] (BTBR mice) is recorded as “decrease repetitive behaviors”. Also, in data set [7] (BTBR mice), the social deficits result is on record as “improve social deficits”. In addition, the “hotplate latency compared to vehicle” value is “decreased” in data set [7] (BTBR mice, higher doses) and “increased” in data set [7] (BTBR mice, lower doses). The “antinociceptive effects to noxious heat” value in data set [7] (control mice) is “only at the high dose”. Further, the cold plate resistance result in data set [7] (mice with Autism mutations, four-week nicotine treatment) is recorded as “increase”.
